# Laboratory results published in US10745398B2, “2-(het)aryl-substituted fused heterocycle derivatives as pesticides” (Bayer CropScience Aktiengesellschaft, priority 2015, dated 2020).
# Tests used:
# [1] = tested on: caterpillars of the armyworm (Spodoptera frugiperda); assay: Spodoptera frugiperda - spray test; format: in vivo; conditions: application rate 500 g/ha, maize leaf discs, after 7 days
# Experimental: (§1) Solvent: 78.0 parts by weight of acetone • • 1.5 parts by weight of dimethylformamide
# (§2) Emulsifier: alkylaryl polyglycol ether
# (§3) To produce a suitable active compound preparation, 1 part by weight of active compound is dissolved with the stated parts by weight of solvent and made up with water containing an emulsifier concentration of 1000 ppm until the desired concentration is attained. To produce further test concentrations, the preparation is diluted with emulsifier-containing water.
# Leaf discs of maize (Zea mays) are sprayed with an active compound preparation of the desired concentration and, after drying, populated with caterpillars of the armyworm (Spodoptera frugiperda).
# After 7 days, the efficacy in % is determined. 100% means that all the caterpillars have been killed; 0% means that no caterpillar has been killed.
# [2] = log P (neutral) by HPLC on reversed-phase column (C 18), EEC Directive 79/831 Annex V.A8; format: physicochemical; conditions: HPLC reversed-phase C 18, 55° C., neutral range pH 7.8, ammonium hydrogencarbonate/acetonitrile
# [3] = tested on: larvae of the mustard beetle (Phaedon cochleariae); assay: Phaedon cochleariae - spray test; format: in vivo; conditions: application rate 500 g/ha, Chinese cabbage leaf discs, after 7 days
# Experimental: as §1, §2, §3
# After 7 days, the efficacy in % is determined. 100% means that all the beetle larvae have been killed; 0% means that no beetle larvae have been killed.
# [4] = tested on: unfed adult cat fleas (Ctenocephalides felis); assay: Ctenocephalides felis - oral test; format: in vivo; conditions: application rate 100 ppm in citrated cattle blood, after 2 days
# Experimental: (§4) Solvent: dimethyl sulphoxide
# To produce a suitable active compound preparation, 10 mg of active compound are mixed with 0.5 ml of dimethyl sulphoxide. Dilution with citrated cattle blood gives the desired concentration.
# About 20 unfed adult cat fleas (Ctenocephalides felis) are placed into a chamber which is closed at the top and bottom with gauze. A metal cylinder whose bottom end is closed with parafilm is placed onto the chamber. The cylinder contains the blood/active compound preparation, which can be imbibed by the fleas through the parafilm membrane.
# After 2 days, the kill in % is determined. 100% means that all of the fleas have been killed; 0% means that none of the fleas have been killed.
# [5] = tested on: L1 larvae of the Australian sheep blowfly (Lucilia cuprina); assay: Lucilia cuprina test; format: in vivo; conditions: application rate 100 ppm, after 2 days
# Experimental: as §4
# To produce a suitable active compound preparation, 10 mg of active compound are mixed with 0.5 ml of dimethyl sulphoxide, and the concentrate is diluted with water to the desired concentration.
# About 20 L1 larvae of the Australian sheep blowfly (Lucilia cuprina) are transferred into a test vessel containing minced horsemeat and the active compound preparation of the desired concentration.
# After 2 days, the kill in % is determined. 100% means that all the larvae have been killed; 0% means that no larvae have been killed.
# [6] = tested on: engorged adult female cattle ticks (Boophilus microplus); assay: Boophilus microplus - injection test; format: in vivo; conditions: application rate 20 μg/animal, assessed after 7 days
# Experimental: as §4
# To produce a suitable active compound preparation, 10 mg of active compound are mixed with 0.5 ml of solvent and the concentrate is diluted with solvent to the desired concentration.
# 1 μl of the active compound solution is injected into the abdomen of 5 engorged adult female cattle ticks (Boophilus microplus). The animals are transferred into dishes and kept in a climate-controlled room.
# Efficacy is assessed after 7 days by laying of fertile eggs. Eggs which are not visibly fertile are stored in a climate-controlled cabinet until the larvae hatch after about 42 days. An efficacy of 100% means that none of the ticks has laid any fertile eggs; 0% means that all the eggs are fertile.
# [7] = tested on: green peach aphid (Myzus persicae); assay: Myzus persicae - spray test; format: in vivo; conditions: application rate 500 g/ha, Chinese cabbage leaf discs, after 5-6 days
# Experimental: Solvent: 78 parts by weight of acetone • • 1.5 parts by weight of dimethylformamide
# as §2, §3
# Discs of Chinese cabbage leaves (Brassica pekinensis) infested by all stages of the green peach aphid (Myzus persicae) are sprayed with an active compound preparation of the desired concentration.
# After 5-6 days, the efficacy in % is determined. 100% means that all the aphids have been killed; 0% means that no aphids have been killed.
Compound,efficacy (caterpillars killed) [1] [%],log P (neutral) [2],efficacy (beetle larvae killed) [3] [%],efficacy (kill in %) [4] [%],efficacy (kill in %) [5] [%],efficacy (no laying of fertile eggs) [6] [%],efficacy (aphids killed) [7] [%],chromatographic logP ([2]; reversed-phase HPLC column (C 18))
CCS(=O)(=O)c1ccc(-n2nnn(-c3ccccc3Cl)c2=O)nc1-c1nc2cc(C(F)(F)F)ncc2n1C [Example I-4],100,–,–,–,–,–,–,–
CCS(=O)(=O)c1ccc(N2CCN(c3ccc(Cl)cc3)C2=O)nc1-c1nc2cc(C(F)(F)F)ncc2n1C [Example I-5],100,"Example I-5: logP (neutral): 3.86 ^1H-NMR(400.0 MHz, d6-DMSO): δ =",100,–,–,–,–,–
CCS(=O)(=O)c1ccc(-n2ccc(-c3ccc(Cl)cc3)n2)nc1-c1nc2cc(C(F)(F)F)ncc2n1C [Example I-6],83,"Example I-6: logP (neutral): 4.62 ^1H-NMR(400.0 MHz, d6-DMSO): δ =",100,90,100,–,–,–
CCS(=O)(=O)c1ccc(-n2cc(-c3ncccc3Cl)cn2)nc1-c1nc2cc(C(F)(F)F)ncc2n1C [Example I-7],100,"Example I-7: logP (neutral): 3.66 ^1H-NMR(400.0 MHz, d6-DMSO): δ =",100,100,100,–,–,–
CCS(=O)(=O)c1ccc(-n2cc(-c3ccccc3)cn2)nc1-c1nc2cc(C(F)(F)F)ncc2n1C [Example I-9],100,"Example I-9: logP (neutral): 3.92 ^1H-NMR(400.0 MHz, d6-DMSO): δ =",100,–,–,–,–,–
CCS(=O)(=O)c1ccc(-n2cc(-c3ccc(Cl)cc3)cn2)nc1-c1nc2cc(C(F)(F)F)ncc2n1C [Example I-10],–,"Example I-10: logP (neutral): 4.33 ^1H-NMR(400.0 MHz, d6-DMSO): δ =",100,–,–,–,–,–
CCS(=O)(=O)c1ccc(-n2cc(-c3ccc(F)cc3)cn2)nc1-c1nc2cc(C(F)(F)F)ncc2n1C [Example I-11],–,"Example I-11: logP (neutral): 4.17 ^1H-NMR(400.0 MHz, d6-DMSO): δ =",100,–,–,–,–,–
CCS(=O)(=O)c1ccc(-n2cc(-c3cccc(Br)c3)cn2)nc1-c1nc2cc(C(F)(F)F)ncc2n1C [Example I-12],100,"Example I-12: logP (neutral): 4.48 ^1H-NMR(400.0 MHz, d6-DMSO): δ =",100,100,100,90,–,–
CCS(=O)(=O)c1ccc(-n2ccc(-c3ccccc3Cl)n2)nc1-c1nc2cc(C(F)(F)F)ncc2n1C [Example I-13],–,"Example I-13: logP (neutral): 4.58 ^1H-NMR(400.0 MHz, d6-DMSO): δ =",100,–,–,–,–,–
CCS(=O)(=O)c1ccc(-n2ccc(-c3ccco3)n2)nc1-c1nc2cc(C(F)(F)F)ncc2n1C [Example I-14],–,"Example I-14: logP (neutral): 3.47 1H-NMR(601.6 MHz, d6-DMSO): □ =",–,–,–,–,–,–
CCS(=O)(=O)c1ccc(-n2cnn(-c3c(F)cccc3F)c2=O)nc1-c1nc2cc(C(F)(F)F)ncc2n1C [Example I-20],–,"Example I-20: logP (neutral): 3.13 1H-NMR(400.0 MHz, d6-DMSO): □ =",–,–,–,–,–,–
CCS(=O)(=O)c1ccc(-n2nnn(-c3ccc(Cl)cc3)c2=O)nc1-c1nc2cc(C(F)(F)F)ncc2n1C [Example I-21],100,"Example I-21: logP (neutral): 3.71: 1H-NMR(400.0 MHz, d6-DMSO): □ =",100,80,100,–,–,–
CCS(=O)(=O)c1ccc(-n2nc(C(F)(F)F)n(-c3ccccc3)c2=O)nc1-c1nc2cc(C(F)(F)F)ncc2n1C [Example I-22],100,–,100,–,–,–,–,–
CCS(=O)(=O)c1ccc(-n2ccc(-c3cccc(Cl)c3)n2)nc1-c1nc2cc(C(F)(F)F)ncc2n1C [Example I-23],100,"Example I-23: logP (neutral): 4.64 1H-NMR(400.0 MHz, d6-DMSO): □ =",100,100,100,–,–,–
CCS(=O)(=O)c1ccc(-n2cc(Cl)c(-c3ccc(F)c(Cl)c3)n2)nc1-c1nc2cc(C(F)(F)F)ncc2n1C [Example I-25],–,"Example I-25: logP (neutral): 5.23 1H-NMR(400.0 MHz, d6-DMSO): □ =",100,–,–,–,–,–
CCS(=O)(=O)c1ccc(-n2cnc(-c3ccccn3)n2)nc1-c1nc2cc(C(F)(F)F)ncc2n1C [Example I-26],100,"Example I-26: logP (neutral): 2.43 1H-NMR(400.0 MHz, d6-DMSO): □ =",100,–,–,–,90,–
CCS(=O)(=O)c1ccc(-n2cnc(-c3cccnc3)n2)nc1-c1nc2cc(C(F)(F)F)ncc2n1C [Example I-27],100,"Example I-27: logP (neutral): 2.54 1H-NMR(400.0 MHz, d6-DMSO): □ =",100,–,–,–,–,–
CCS(=O)(=O)c1ccc(-c2cnn(-c3ccccc3F)c2)nc1-c1nc2cc(C(F)(F)F)ncc2n1C [Example I-28],100,"Example I-28: logP (neutral): 3.38 1H-NMR(400.0 MHz, d6-DMSO): □ =",100,100,100,–,–,–
CCS(=O)(=O)c1ccc(-c2cc(-c3ccccc3)no2)nc1-c1nc2cc(C(F)(F)F)ncc2n1C [Example I-31],100,"Example I-31: logP (neutral): 3.81 1H-NMR(400.0 MHz, d6-DMSO): □ =",–,–,–,–,–,–
CCS(=O)(=O)c1ccc(-n2cnn(-c3ccccc3F)c2=O)nc1-c1nc2cc(C(F)(F)F)ccc2n1C [Example I-34],100,–,100,–,–,–,–,–
"CCS(=O)(=O)c1ccc(-n2cnn(-c3ccccc3F)c2=O)nc1-c1cn2cnc(C(F)(F)F)cc2n1 [Example I-35, 4-{5-(Ethylsulfonyl)-6-[7-(trifluoromethyl)imidazo[1,2-c]pyrimidine-2-yl]pyridin-2-yl}-2-(2-fluorophenyl)-2,4-dihydro-3H-1,2,4-triazol-3-one]",100,–,100,–,–,–,–,3.16
